Where “and” joins values, the source holds several entries; their conditions need not be identical. Equal values may be shown once. Toxic doses and inconclusive results are not listed. Numbered stars: 1 amine (or outer) side, 2 acyl side, 3 side chain; on linkers, the order of the positions; unused ones are H or OH. Bridge positions count the residues as written; N and C are the ends. Square brackets hold non-standard residues; d marks the D form. Peptide text beside a SMILES is read from it. I, II: the chains in the order shown. Actinocin(9to1) = Cc1c2oc3c(C)ccc(C(=O)[*:1])c3nc-2c(C(=O)[*:2])c(N)c1=O; aThr = C[C@H](O)[C@H](N)C(=O)O; NMeV = CN[C@H](C(=O)O)C(C)C; Sar = CNCC(=O)O
Test system: AKR/Lw mice, AKR lymphoma ip, median survival T/C
Assay: NCI In Vivo Anticancer Drug Screen. Data for tumor model Lymphoma AKR (Transplanted) (intraperitoneal) in AKR/Lw mice
Details: endpoint: median survival time, higher = longer survival
Protocol: The antitumor activity of compounds was measured in mice bearing transplantable tumors. Survival or tumor size were measured and the results are expressed as the measurement made in the treated group (T) divided by the measurement made in the vehicle treated control group (C). The tumor model used in this assay is Lymphoma AKR (Transplanted) (intraperitoneal) in AKR/Lw mice

[1] = dose: 25.0 mg/kg/injection, schedule: Q04DX003 (ip), vehicle: saline
[2] = dose: 50.0 mg/kg/injection, schedule: Q04DX003 (ip), vehicle: saline
[3] = dose: 100.0 mg/kg/injection, schedule: Q01DX001 (ip), vehicle: saline
[4] = dose: 100.0 mg/kg/injection, schedule: Q04DX003 (ip), vehicle: saline
[5] = dose: 200.0 mg/kg/injection, schedule: Q01DX001 (ip), vehicle: saline
[6] = dose: 200.0 mg/kg/injection, schedule: Q01DX001 (ip), vehicle: saline with Tween-80
[7] = dose: 400.0 mg/kg/injection, schedule: Q01DX001 (ip), vehicle: saline with Tween-80
[8] = dose: 100.0 mg/kg/injection, schedule: Q01DX001 (ip), vehicle: Klucel (hydroxypropylcellulose) (HPC)
[9] = dose: 200.0 mg/kg/injection, schedule: Q01DX001 (ip), vehicle: Klucel (hydroxypropylcellulose) (HPC)
[10] = dose: 25.0 mg/kg/injection, schedule: Q01DX001 (ip), vehicle: saline
[11] = dose: 400.0 mg/kg/injection, schedule: Q01DX001 (ip), vehicle: Klucel (hydroxypropylcellulose) (HPC)

COC(=O)C1CC2C(Cl)=C(Cl)C1(Cl)C2(Cl)Cl (configuration not stated)
T/C [1]: 108 % of control
T/C [2]: 100 % of control
T/C [3]: 96 % of control
T/C [4]: 95 % of control
T/C [5]: 105 % of control
T/C (dose: 400.0 mg/kg/injection, schedule: Q01DX001 (ip), vehicle: saline): 103 % of control

Cc1c2oc3c(C)ccc(C(=O)N[C@@H]4C(=O)N[C@H](C(C)C)C(=O)N5CCC[C@H]5C(=O)N(C)CC(=O)N(C)[C@@H](C(C)C)C(=O)O[C@H]4C)c3nc-2c(C(=O)N[C@@H]2C(=O)N[C@H](C(C)C)C(=O)N3CCC[C@H]3C(=O)N(C)CC(=O)N(C)[C@@H](C(C)C)C(=O)O[C@H]2C)c(N)c1=O (I: [aThr][dV]P[Sar][NMeV] / II: [aThr][dV]P[Sar][NMeV]; ester I:1-I:C, II:1-II:C; linker I:N-II:N via Actinocin(9to1))
T/C (dose: 0.05 mg/kg/injection, schedule: Q01DX001 (ip), vehicle: saline): 110 % of control
T/C (dose: 0.1 mg/kg/injection, schedule: Q01DX001 (ip), vehicle: saline): 117 % of control
T/C (dose: 0.2 mg/kg/injection, schedule: Q01DX001 (ip), vehicle: saline): 112 % of control
T/C (dose: 1.0 micrograms/kg/injection, schedule: Q01DX015 (ip), vehicle: saline): 94 % of control
T/C (dose: 2.0 micrograms/kg/injection, schedule: Q01DX015 (ip), vehicle: saline): 108 % of control
T/C (dose: 4.0 micrograms/kg/injection, schedule: Q01DX015 (ip), vehicle: saline): 105 % of control
T/C (dose: 5.0 micrograms/kg/injection, schedule: Q01DX010 (ip), vehicle: saline): 109 % of control
T/C (dose: 6.0 micrograms/kg/injection, schedule: Q01DX015 (ip), vehicle: saline): 105 % of control
T/C (dose: 9.0 micrograms/kg/injection, schedule: Q01DX015 (ip), vehicle: saline): 111 % of control
T/C (dose: 10.0 micrograms/kg/injection, schedule: Q01DX010 (ip), vehicle: saline): 119 % of control
T/C (dose: 13.0 micrograms/kg/injection, schedule: Q01DX015 (ip), vehicle: saline): 94 % of control
T/C (dose: 20.0 micrograms/kg/injection, schedule: Q01DX015 (ip), vehicle: saline): 119 % of control

S=c1nc(-c2ccccc2)c(-c2ccccc2)n[nH]1
T/C (dose: 100.0 mg/kg/injection, schedule: Q01DX001 (ip), vehicle: saline with Tween-80): 106 % of control
T/C [6]: 103 % of control
T/C [7]: 112 % of control

COc1cccc(CNc2cccc(Cl)c2Cl)c1OC
T/C [6]: 93 % of control and 100 % of control
T/C [7]: 93 % of control and 113 % of control

C=CCN(CC=C)c1ccc(N(CC)CC)cc1
T/C (dose: 25.0 mg/kg/injection, schedule: Q04DX003 (ip), vehicle: Klucel (hydroxypropylcellulose) (HPC)): 100 % of control
T/C (dose: 50.0 mg/kg/injection, schedule: Q04DX003 (ip), vehicle: Klucel (hydroxypropylcellulose) (HPC)): 94 % of control
T/C [8]: 96 % of control
T/C (dose: 100.0 mg/kg/injection, schedule: Q04DX003 (ip), vehicle: Klucel (hydroxypropylcellulose) (HPC)): 97 % of control
T/C [9]: 92 % of control
T/C (dose: 200.0 mg/kg/injection, schedule: Q04DX003 (ip), vehicle: Klucel (hydroxypropylcellulose) (HPC)): 100 % of control

O=c1[nH]c(=O)n(C2CC(O)C(CO)O2)cc1F (configuration not stated)
T/C (dose: 3.1 mg/kg/injection, schedule: Q04DX003 (ip), vehicle: saline): 100 % of control
T/C (dose: 5.0 mg/kg/injection, schedule: Q01DX009 (ip), vehicle: saline): 100 % of control
T/C (dose: 6.2 mg/kg/injection, schedule: Q04DX003 (ip), vehicle: saline): 92 % of control
T/C (dose: 6.25 mg/kg/injection, schedule: Q01DX009 (ip), vehicle: saline): 104 % of control
T/C (dose: 10.0 mg/kg/injection, schedule: Q01DX009 (ip), vehicle: saline): 106 % of control
T/C (dose: 11.0 mg/kg/injection, schedule: Q01DX015 (ip), vehicle: saline): 86 % of control
T/C (dose: 12.5 mg/kg/injection, schedule: Q01DX015 (ip), vehicle: saline): 117 % of control
T/C (dose: 12.5 mg/kg/injection, schedule: Q04DX003 (ip), vehicle: saline): 94 % of control and 102 % of control
T/C (dose: 15.0 mg/kg/injection, schedule: Q01DX009 (ip), vehicle: saline): 102 % of control and 123 % of control
T/C (dose: 16.5 mg/kg/injection, schedule: Q01DX015 (ip), vehicle: saline): 86 % of control
T/C (dose: 25.0 mg/kg/injection, schedule: Q01DX015 (ip), vehicle: saline): 113 % of control
T/C [1]: 90 % of control and 97 % of control
T/C (dose: 40.0 mg/kg/injection, schedule: Q01DX015 (ip), vehicle: saline): 86 % of control
T/C (dose: 50.0 mg/kg/injection, schedule: Q01DX015 (ip), vehicle: saline): 114 % of control and 121 % of control
T/C (dose: 60.0 mg/kg/injection, schedule: Q01DX001 (ip), vehicle: saline): 111 % of control
T/C (dose: 60.0 mg/kg/injection, schedule: Q01DX009 (ip), vehicle: saline): 112 % of control and 117 % of control
T/C (dose: 75.0 mg/kg/injection, schedule: Q01DX009 (ip), vehicle: saline): 115 % of control
T/C [3]: 95 % of control and 97 % of control
T/C [4]: 86 % of control and 90 % of control and 104 % of control
T/C (dose: 120.0 mg/kg/injection, schedule: Q01DX001 (ip), vehicle: saline): 107 % of control
T/C (dose: 150.0 mg/kg/injection, schedule: Q01DX001 (ip), vehicle: saline): 105 % of control and 110 % of control and 116 % of control
T/C (dose: 150.0 mg/kg/injection, schedule: Q04DX003 (ip), vehicle: saline): 123 % of control
T/C [5]: 104 % of control and 105 % of control and 119 % of control
T/C (dose: 250.0 mg/kg/injection, schedule: Q04DX003 (ip), vehicle: saline): 150 % of control

COc1cc2ccc(C(C)N)cc2cc1OC (configuration not stated)
T/C [2]: 105 % of control
T/C [3]: 98 % of control
T/C [4]: 102 % of control
T/C [5]: 100 % of control
T/C (dose: 200.0 mg/kg/injection, schedule: Q04DX003 (ip), vehicle: saline): 95 % of control

CC1(C)CC[N+]1(C)Cc1ccccc1 (configuration not stated)
T/C (dose: 6.25 mg/kg/injection, schedule: Q01DX001 (ip), vehicle: saline): 97 % of control
T/C (dose: 12.5 mg/kg/injection, schedule: Q01DX001 (ip), vehicle: saline): 100 % of control
T/C [10]: 100 % of control

CC(C)n1c(=S)[nH]c2ccccc2c1=O
T/C [8]: 90 % of control
T/C [9]: 118 % of control
T/C [11]: 104 % of control

COc1ccc(COC(=O)CN2C(=O)c3ccccc3C2=O)cc1
T/C [8]: 97 % of control
T/C [9]: 100 % of control
T/C [11]: 113 % of control

C[N+](C)(C)Cc1ccccc1
T/C [10]: 91 % of control

CO[C@H]1/C=C/O[C@@]2(C)Oc3c(C)c(O)c4c(O)c(c(/C=N/N5C(C)CN(Cc6ccccc6)CC5C)c(O)c4c3C2=O)NC(=O)/C(C)=C\C=C\[C@H](C)[C@H](O)[C@@H](C)[C@@H](O)[C@@H](C)[C@H](OC(C)=O)[C@@H]1C (some centres not stated)
T/C (dose: 12.5 mg/kg/injection, schedule: Q01DX008 (ip), vehicle: Klucel (hydroxypropylcellulose) (HPC)): 99 % of control
T/C (dose: 25.0 mg/kg/injection, schedule: Q01DX008 (ip), vehicle: Klucel (hydroxypropylcellulose) (HPC)): 104 % of control
T/C (dose: 50.0 mg/kg/injection, schedule: Q01DX008 (ip), vehicle: Klucel (hydroxypropylcellulose) (HPC)): 91 % of control
T/C (dose: 100.0 mg/kg/injection, schedule: Q01DX008 (ip), vehicle: Klucel (hydroxypropylcellulose) (HPC)): 103 % of control
T/C (dose: 200.0 mg/kg/injection, schedule: Q01DX008 (ip), vehicle: Klucel (hydroxypropylcellulose) (HPC)): 96 % of control
T/C (dose: 400.0 mg/kg/injection, schedule: Q01DX008 (ip), vehicle: Klucel (hydroxypropylcellulose) (HPC)): 95 % of control

COc1ccc(N2CSC(=S)N(c3ccc(OC)cc3)C2)cc1
T/C [8]: 88 % of control
T/C [9]: 88 % of control
T/C [11]: 92 % of control

Reference: PubChem BioAssay AID190 (DTP/NCI, 2004)
